In this assay the test system is 873145-292-R-J1-PDC complex spheroid viability. As to the kind of experiment: Anticancer human tumor 873145-292-R-J1-PDC patient-derived renal clear cell carcinoma cell line growth inhibition [POLQ]. To be noted: for viability, T/C: stronger effect = lower value. How it is done: Multicellular complex tumor spheroid response to Polymerase (POL) inhibitors (novobiocin, ART-558, RP6685) in combination with a variety of drugs and investigational agents in selected tumor cell lines
The POL inhibitors (novobiocin, ART-558, and RP6685) were evaluated both individually and in combination with standard of care and investigational anticancer small molecules within a complex spheroid model of solid tumors. . Complex spheroids include a stromal component modeled by human endothelial cells (HUVEC) and fibroblasts modeled by human mesenchymal stem cells (MSCs). The concentration ranges selected for each drug and investigational agent were based upon clinically achievable concentrations if the clinical Cmax of the agent was known.
Compounds. The drugs and investigational agents: novobiocin (NSC847541), ART-558 (NSC835418), RP-6685 (NSC848927), peposertib (NSC802822), ceralasertib (NSC780249), elimusertib (NSC800525), camonsertib (NSC841442), AZD-1390 (NSC803789), olaparib (NSC753686), talazoparib (NSC767125), rucaparib (NSC756644), sotorasib (NSC818433), MRTX-1133 (NSC836407), SN-38 (NSC673596), topotecan (NSC609699), epotoside (NSC141540), doxorubicin (NSC123127), gemcitabine (NSC613327), 5-fluorouracil (NSC19893), paclitaxel (NSC125973), vemurafenib (NSC761431), MSA-2 (NSC828583), SN-011 (NSC837082), adavosertib (NSC754352), prexasertib (NSC758257), carboplatin (NSC241240) and oxaliplatin (NSC266046), were obtained from the National Cancer Institute (NCI) Developmental Therapeutics Program Chemical Repository (21). The FDA-approved anticancer drug set is available from the Developmental Therapeutics Program at https://dtp.cancer.gov/organization/dscb/obtaining/. […] The stock solutions were prepared in dimethyl sulfoxide (DMSO, Sigma-Aldrich, St. Louis, MO, cat. D2650), except for the platinum compounds which were prepared in saline (Quality Biological, Gaithersburg, MD, cat. 114-055-101), at 800-fold the tested concentration and stored at -70 degrees C prior to their use. All drugs and investigational agents were tested over a range starting from a high concentration at or near the clinical Cmax and decreasing in half-log increments. If the clinical Cmax for an agent had not been determined, the highest concentration tested was 10 microM, except for SN-38, which was tested at a high concentration of 1 microM.
Cell Culture. All cells were maintained in an incubator at 37 degrees C and 5% CO2 with 95% humidity. The PDC lines were cultured according to standard operating procedures established by the NCI PDMR (https://pdmr.cancer.gov). Table 3 of the manuscript, lists the cell lines along with the number of the three cell types plated to form the mct-spheroids and media for tumor cell growth. After thawing, all PDC lines, except 997537-175-T-J1-PDC and 415267-285-R-J2-PDC, were cultured in Matrigel-coated flasks prepared with a working solution of 1X Ham's F-12 nutrient mix, without supplementation (Thermo Fisher Scientific, cat. 11765054), 100 U/mL penicillin-streptomycin (Thermo Fisher Scientific, cat. 15140122), and 2.5% Matrigel (Corning Inc., Corning, NY, cat. 354248) for the first three passages. The two PDC lines 997537-175-T-J1-PDC and 415267-285-R-J2-PDC were cultured on uncoated flasks. The 857933-349-R-J2-PDC line was cultured in 6C/Colon 1B media containing advanced DMEM/F-12 (Thermo Fisher Scientific, cat. 12634028), 10 mM HEPES (Thermo Fisher Scientific, cat. 15630080), 1X GlutaMAX supplement (Thermo Fisher Scientific, cat. 35050061), 0.1 mg/mL primocin (InvivoGen, San Diego, CA, cat. ant-pm-2), 10% defined fetal bovine serum, heat inactivated (HyClone Laboratories Inc., Logan, UT, cat. SH30070.03HI), 50% L-WRN conditioned media (ATCC, cat. CRL-3276), 1.25 mM N-Acetyl-L-cysteine (Sigma-Aldrich, cat. A9165), 10 mM nicotinamide (Sigma-Aldrich, cat. N0636), 1X B-27 supplement (Thermo Fisher Scientific, cat. 17504044), 1X N-2 supplement (Thermo Fisher Scientific, cat. […]

Where [1] appears, read: compound alone, run of 01/08/2024.

Values joined by “and” are separate entries in the source; they are usually repeats but may differ in a detail not shown here. Identical values can stand only once.
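Note: spheroids exposed to compounds for 7 days before viability readout.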
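Throughout, for viability, T/C: luminescence signal used as surrogate for viable cell content.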

For the molecule `COC1C(OC(N)=O)C(O)C(Oc2ccc3c(O)c(NC(=O)c4ccc(O)c(CC=C(C)C)c4)c(=O)oc3c2C)OC1(C)C` (stereo not given), the viability, T/C (commonly the result in the treated group divided by that in the control group, in per cent) (compound 0.0316 µM) is 93.7% [middle of 13 runs]; the viability, T/C (compound 0.316 µM) was 102% [middle of 13 runs]; the viability, T/C (compound 1 µM) is 99.8% [middle of 13 runs]; the viability, T/C (compound 3.16 µM) was 102% [middle of 13 runs]; the viability, T/C (compound 10 µM) was 98.3% [middle of 13 runs]. Further, under setting [1], the IC50 (commonly the concentration at which inhibition is half-maximal) is above 10 µM.

As to `COc1cc(C2c3cc4c(cc3C(OC3OC5COC(C)OC5C(O)C3O)C3COC(=O)C23)OCO4)cc(OC)c1O` (stereo not given), the viability, T/C by setting is: (compound 0.0316 µM) 95.1% and 110% and 113%; (compound 0.1 µM) 94.9% and 101% and 95.3%; (compound 0.316 µM) 98.2% and 106% and 94.5%; (compound 1 µM) 95.1% and 95.9% and 102%; (compound 3.16 µM) 67% and 80.8% and 85.2%; (compound 10 µM) 56.9% and 68.2% and 66%. The IC50 (curve of compound) was above 10 µM.

For `COc1ccc([C@@H](O)c2cc(-c3ncnc4cc(N5CCOCC5)ccc34)c(F)cc2Cl)nn1`, the viability, T/C is 70.5% and 97.3% and 103% (compound 0.0316 µM); 85% and 91.1% and 92.7% (compound 0.1 µM); 86.9% and 84.3% and 87% (compound 0.316 µM); 66.4% and 79.4% and 67.4% (compound 1 µM); 56.9% and 52.8% and 57% (compound 3.16 µM); 42.3% and 49.3% and 41.6% (compound 10 µM). For the same molecule, under “curve of compound”, the IC50 is 5.01 µM and 7.26 µM and 5.06 µM.

`COc1cccc(OCCCN)c1-c1cc(Nc2cnc(C#N)cn2)n[nH]1`: the viability, T/C was 103% and 116% and 101% (compound 0.00316 µM); 89.6% and 98.2% and 94.2% (compound 0.01 µM); 68.6% and 71.2% and 98.3% (compound 0.0316 µM); 60.8% and 74% and 71.8% (compound 0.1 µM); 63.5% and 75.3% and 79.5% (compound 0.316 µM); 72.4% and 84.5% and 73.1% (compound 1 µM). The IC50 (curve of compound) is above 1 µM.

In the case of `COc1cccc2c1C(=O)c1c(O)c3c(c(O)c1C2=O)CC(O)(C(=O)CO)CC3OC1CC(N)C(O)C(C)O1` (stereo not given), the viability, T/C (compound 0.0316 µM) is 79.5% and 101% and 88.3%; the viability, T/C (compound 0.1 µM) was 68.8% and 87.2% and 90.1%; the viability, T/C (compound 0.316 µM) is 70.1% and 92.2% and 85.7%; the viability, T/C (compound 1 µM) was 68.8% and 84.2% and 79.3%; the viability, T/C (compound 3.16 µM) was 3.4% and 5.11% and 4.22%; the viability, T/C (compound 10 µM) is 2.7% and 3.08% and 3.02%. For the same molecule, the IC50 (curve of compound) is 1.39 µM and 1.65 µM and 1.57 µM.

On to `Cc1cccc(N(C)C(=O)C2C(O)CCN2c2nc(C)cc(C(F)(F)F)c2C#N)c1` (stereo not given), for which the viability, T/C (compound 0.0316 µM) is 93.4% [middle of 13 runs]; the viability, T/C (compound 0.1 µM) was 97.4% [middle of 13 runs]; the viability, T/C (compound 0.316 µM) was 98.9% [middle of 13 runs]; the viability, T/C (compound 1 µM) was 99.9% [middle of 13 runs]; the viability, T/C (compound 3.16 µM) was 99.1% [middle of 13 runs]; the viability, T/C (compound 10 µM) is 95.5% [middle of 11 runs]. The IC50 is above 10 µM under setting [1] and above 10 µM (compound alone, run of 01/19/2024).

With `Cn1ncnc1[C@H]1c2n[nH]c(=O)c3cc(F)cc(c23)N[C@@H]1c1ccc(F)cc1`, the viability, T/C by setting is: (compound 0.000316 µM) 99.5% and 108% and 99.7%; (compound 0.001 µM) 102% and 92.8% and 98%; (compound 0.00316 µM) 91.2% and 96.3% and 103%; (compound 0.01 µM) 107% and 97.5% and 102%; (compound 0.0316 µM) 108% and 102% and 94.4%; (compound 0.1 µM) 101% and 97.9% and 88.9%. Under “curve of compound”, the IC50 is above 0.1 µM.

On to `Nc1ccn(C2OC(CO)C(O)C2(F)F)c(=O)n1` (stereo not given), for which the viability, T/C by setting is: (compound 0.0316 µM) 64.3% and 74.6% and 56.8%; (compound 0.1 µM) 55.4% and 57.4% and 46.8%; (compound 0.316 µM) 50.4% and 59.5% and 57.8%; (compound 1 µM) 58.3% and 53% and 55.6%; (compound 3.16 µM) 55.6% and 60% and 51.4%; (compound 10 µM) 49.7% and 56.7% and 41.6%. For the same molecule, the IC50 (curve of compound) was > 10 µM and 1.86 µM.

Regarding `O=C(c1cc(Cc2n[nH]c(=O)c3ccccc23)ccc1F)N1CCN(C(=O)C2CC2)CC1`, the viability, T/C by setting is: (compound 0.0316 µM) 99.8% and 99.5% and 107%; (compound 0.1 µM) 96.2% and 91.1% and 106%; (compound 0.316 µM) 91.9% and 115% and 107%; (compound 1 µM) 104% and 97.4% (2×); (compound 3.16 µM) 98.6% and 112% and 104%; (compound 10 µM) 91.7% and 95.1% and 102%. For the same molecule, under “curve of compound”, the IC50 was above 10 µM.

For the molecule `O=c1[nH]cc(F)c(=O)[nH]1`, the viability, T/C was 90.7% and 101% and 99.7% (compound 0.0316 µM); 98.1% and 101% and 92.8% (compound 0.1 µM); 93.2% and 92.1% and 94.4% (compound 0.316 µM); 99.2% and 101% and 92% (compound 1 µM); 107% and 102% and 96.4% (compound 3.16 µM); 99.7% and 106% and 94.3% (compound 10 µM). Besides, the IC50 (curve of compound) is above 10 µM.
